The assay has as its target TLR2 (Homo sapiens, UniProt O60603). Nature of the assay: TLR2 agonist screening assay, HEK-Blue TLR2 reporter cell line (NF-kB-driven SEAP, absorbance at 600 nm). The class given is cell-based. Details: host or cells: HEK-293 (HEK-Blue TLR2 reporter cell line). To be noted: HEK-Blue TLR2 reporter cells, agonist mode; average of all runs (Table 4). An outline of the steps:
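Read-out: SEAP colour change, A600, after overnight agonist exposure. Cells: HEK-293 overexpressing TLR2, NF-kB-SEAP reporter, ~40,000/well, plated 16-24 h prior.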
TLR2, sequence (O60603 21-784): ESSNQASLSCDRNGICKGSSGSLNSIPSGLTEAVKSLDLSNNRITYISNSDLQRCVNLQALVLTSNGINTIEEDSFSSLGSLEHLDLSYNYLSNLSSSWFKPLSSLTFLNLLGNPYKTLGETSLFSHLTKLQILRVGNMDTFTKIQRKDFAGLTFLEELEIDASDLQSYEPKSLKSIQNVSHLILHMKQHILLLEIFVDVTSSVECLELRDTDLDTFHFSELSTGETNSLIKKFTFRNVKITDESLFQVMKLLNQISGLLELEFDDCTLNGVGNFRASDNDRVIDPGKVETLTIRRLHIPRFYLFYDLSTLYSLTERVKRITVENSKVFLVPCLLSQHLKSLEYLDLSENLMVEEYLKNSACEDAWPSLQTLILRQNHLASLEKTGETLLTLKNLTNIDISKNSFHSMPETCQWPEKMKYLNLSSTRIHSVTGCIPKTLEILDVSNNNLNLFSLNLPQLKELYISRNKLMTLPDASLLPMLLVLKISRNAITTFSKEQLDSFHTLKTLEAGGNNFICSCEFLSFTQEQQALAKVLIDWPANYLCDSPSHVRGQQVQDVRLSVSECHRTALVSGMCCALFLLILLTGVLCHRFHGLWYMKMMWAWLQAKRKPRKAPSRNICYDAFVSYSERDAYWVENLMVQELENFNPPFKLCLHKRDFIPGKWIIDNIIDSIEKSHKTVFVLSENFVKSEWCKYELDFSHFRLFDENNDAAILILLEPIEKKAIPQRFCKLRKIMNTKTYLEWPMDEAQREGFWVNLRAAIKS
Consider `CCCCCCCCCCCCCCNC(=O)[C@@H]1CN(C(=O)c2ccc(C(=O)N3C[C@@H](C(=O)N[C@H]4C[C@@H]4c4ccccc4)[C@H](C(=O)N[C@H]4C[C@@H]4c4ccccc4)C3)cc2)C[C@H]1N(C)[C@H](C)c1ccccc1` [Compound 090, (3S,4S)-1-(4-((3S,4R)-3-(methyl((R)-1-phenylethyl)amino)-4-(tetradecylcarbamoyl)pyrrolidine-1-carbonyl)benzoyl)-N3,N4-bis((1S,2R)-2-phenylcyclopropyl)pyrrolidine-3,4-dicarboxamide], for which the EC50 was above 1000 nM.

For `CCCCCCCCCCCCCCNC(=O)[C@@H]1CN(C(=O)c2ccc(C(=O)N3C[C@@H](C(=O)N[C@H]4C[C@@H]4c4ccccc4)[C@H](C(=O)N[C@H]4C[C@@H]4c4ccccc4)C3)cc2)C[C@H]1N(C)C` [Compound 091, (3S,4S)-1-(4-((3S,4R)-3-(dimethylamino)-4-(tetradecylcarbamoyl)pyrrolidine-1-carbonyl)benzoyl)-N3,N4-bis((1S,2R)-2-phenylcyclopropyl)pyrrolidine-3,4-dicarboxamide], the EC50 is above 1000 nM.

`CCCCCCCCCCCCCCNC(=O)[C@H]1CN(Cc2ccc(C(=O)N3C[C@@H](C(=O)N[C@H]4C[C@@H]4c4ccccc4)[C@H](C(=O)N[C@H]4C[C@@H]4c4ccccc4)C3)cc2)C(=O)CN1C` [Compound 092, (3S,4S)-1-(4-(((R)-4-methyl-2-oxo-5-(tetradecylcarbamoyl)piperazin-1-yl)methyl)benzoyl)-N3,N4-bis((1S,2R)-2-phenylcyclopropyl)pyrrolidine-3,4-dicarboxamide] showed an EC50 of 51 to 350 nM.

As to `CCCCCCCCCCCCCCNC(=O)[C@@H]1CN(Cc2ccc(C(=O)N3C[C@@H](C(=O)N[C@H]4C[C@@H]4c4ccccc4)[C@H](C(=O)N[C@H]4C[C@@H]4c4ccccc4)C3)cc2)C(=O)CN1C` [Compound 093, (3S,4S)-1-(4-(((S)-4-methyl-2-oxo-5-(tetradecylcarbamoyl)piperazin-1-yl)methyl)benzoyl)-N3,N4-bis((1S,2R)-2-phenylcyclopropyl)pyrrolidine-3,4-dicarboxamide], the EC50 fell in the range of 51 to 350 nM.

Turning to `CCCCCCCCCCCCCCNC(=O)[C@@H]1CN(C(=O)c2ccc(C(=O)N3C[C@@H](C(=O)N[C@H]4C[C@@H]4c4ccccc4)[C@H](C(=O)N[C@H]4C[C@@H]4c4ccccc4)C3)cc2)C[C@H]1NC` [Compound 098, (3S,4S)-1-(4-((3S,4R)-3-(methylamino)-4-(tetradecylcarbamoyl)pyrrolidine-1-carbonyl)benzoyl)-N3,N4-bis((1S,2R)-2-phenylcyclopropyl)pyrrolidine-3,4-dicarboxamide], the concentration giving a half-maximal response (EC50) fell in the range of 0.1 to 50 nM.

In turn, `CCCCCCNC(=O)CC[C@@H](NC(=O)c1ccc(C(=O)N2C[C@@H](C(=O)N[C@H]3C[C@@H]3c3ccccc3)[C@H](C(=O)N[C@H]3C[C@@H]3c3ccccc3)C2)cc1)C(=O)NCCCCCC` [Compound 099, (3S,4S)-1-(4-(((R)-1,5-bis(hexylamino)-1,5-dioxopentan-2-yl)carbamoyl)benzoyl)-N3,N4-bis((1S,2R)-2-phenylcyclopropyl)pyrrolidine-3,4-dicarboxamide] displayed an EC50 above 1000 nM.

`CCCCCCCCCCCCCCNC(=O)C1CC(=O)N(Cc2ccc(C(=O)N3C[C@@H](C(=O)N[C@H]4C[C@@H]4c4ccccc4)[C@H](C(=O)N[C@H]4C[C@@H]4c4ccccc4)C3)cc2)C1` (stereo partly drawn) [Compound 100, (3S,4S)-1-(4-((2-oxo-4-(tetradecylcarbamoyl)pyrrolidin-1-yl)methyl)benzoyl)-N3,N4-bis((1S,2R)-2-phenylcyclopropyl)pyrrolidine-3,4-dicarboxamide] registered a concentration for a half-maximal effect (EC50) above 1000 nM.

Consider `CCCCCCNC(=O)C[C@@H](NC(=O)c1ccc(C(=O)N2C[C@@H](C(=O)N[C@H]3C[C@@H]3c3ccccc3)[C@H](C(=O)N[C@H]3C[C@@H]3c3ccccc3)C2)cc1)C(=O)NCCCCCC` [Compound 117, (3S,4S)-1-(4-(((R)-1,4-bis(hexylamino)-1,4-dioxobutan-2-yl)carbamoyl)benzoyl)-N3,N4-bis((1S,2R)-2-phenylcyclopropyl) pyrrolidine-3,4-dicarboxamide], for which the EC50 is above 1000 nM.

`CCCCCCNC(=O)[C@@H](CNC(=O)CCCCCC)NC(=O)c1ccc(C(=O)N2C[C@@H](C(=O)N[C@H]3C[C@@H]3c3ccccc3)[C@H](C(=O)N[C@H]3C[C@@H]3c3ccccc3)C2)cc1` [Compound 118, (3S,4S)-1-(4-(((R)-3-heptanamido-1-(hexylamino)-1-oxopropan-2-yl)carbamoyl)benzoyl)-N3,N4-bis((1S,2R)-2-phenylcyclopropyl) pyrrolidine-3,4-dicarboxamide]: the EC50 is above 1000 nM.

The compound `CCCCCCNC(=O)[C@@H](CCNC(=O)CCCCCC)NC(=O)c1ccc(C(=O)N2C[C@@H](C(=O)N[C@H]3C[C@@H]3c3ccccc3)[C@H](C(=O)N[C@H]3C[C@@H]3c3ccccc3)C2)cc1` [Compound 119, (3S,4S)-1-(4-(((R)-4-heptanamido-1-(hexylamino)-1-oxobutan-2-yl)carbamoyl)benzoyl)-N3,N4-bis((1S,2R)-2-phenylcyclopropyl)pyrrolidine-3,4-dicarboxamide] registered an EC50 above 1000 nM.

Compound `CCCCCCNC(=O)[C@@H](CCNC(=O)c1ccc(C(=O)N2C[C@@H](C(=O)N[C@H]3C[C@@H]3c3ccccc3)[C@H](C(=O)N[C@H]3C[C@@H]3c3ccccc3)C2)cc1)NC(=O)CCCCCC` [Compound 120, (3S,4S)-1-(4-(((R)-3-heptanamido-4-(hexylamino)-4-oxobutyl)carbamoyl)benzoyl)-N3,N4-bis((1S,2R)-2-phenylcyclopropyl)pyrrolidine-3,4-dicarboxamide] came in with an EC50 above 1000 nM.

With `CCCCCCCC(=O)N1CCN(Cc2ccc(C(=O)N3C[C@@H](C(=O)N[C@H]4C[C@@H]4c4ccccc4)[C@H](C(=O)N[C@H]4C[C@@H]4c4ccccc4)C3)cc2)C[C@@H]1C(=O)NCCCCCC` [Compound 121, (3S,4S)-1-(4-(((R)-3-(hexylcarbamoyl)-4-octanoylpiperazin-1-yl)methyl)benzoyl)-N3,N4-bis((1S,2R)-2-phenylcyclopropyl)pyrrolidine-3,4-dicarboxamide], the EC50 lay within 351 to 1000 nM.

Turning to `CCCCCCCC(=O)N1CCN(Cc2ccc(C(=O)N3C[C@@H](C(=O)N[C@H]4C[C@@H]4c4ccccc4)[C@H](C(=O)N[C@H]4C[C@@H]4c4ccccc4)C3)cc2)C[C@H]1C(=O)NCCCCCC` [Compound 122, (3S,4S)-1-(4-(((S)-3-(hexylcarbamoyl)-4-octanoylpiperazin-1-yl)methyl)benzoyl)-N3,N4-bis((1S,2R)-2-phenylcyclopropyl) pyrrolidine-3,4-dicarboxamide], the EC50 is above 1000 nM.

As to `CCCCCCCCCCCCCCNC(=O)[C@H]1CCCN(C(=O)c2ccc(C(=O)N3C[C@@H](C(=O)N[C@H]4C[C@@H]4c4ccccc4)[C@H](C(=O)N[C@H]4C[C@@H]4c4ccccc4)C3)cc2)C1` [Compound 123, (3S,4S)—N3,N4-bis((1S,2R)-2-phenylcyclopropyl)-1-(4-((S)-3-(tetradecylcarbamoyl)piperidine-1-carbonyl)benzoyl)pyrrolidine-3,4-dicarboxamide], the EC50 was 0.1 to 50 nM.

On to `CCCCCCCCCCCCCCC(=O)N[C@H]1CCCN(C(=O)c2ccc(C(=O)N3C[C@@H](C(=O)N[C@H]4C[C@@H]4c4ccccc4)[C@H](C(=O)N[C@H]4C[C@@H]4c4ccccc4)C3)cc2)C1` [Compound 124, (3S,4S)-1-(4-((S)-3-pentadecanamidopiperidine-1-carbonyl)benzoyl)-N3,N4-bis((1S,2R)-2-phenylcyclopropyl)pyrrolidine-3,4-dicarboxamide], for which the concentration for a half-maximal effect (EC50) was above 1000 nM.

`CCCCCCCCCCCCCCC(=O)N1CCC[C@H](NC(=O)c2ccc(C(=O)N3C[C@@H](C(=O)N[C@H]4C[C@@H]4c4ccccc4)[C@H](C(=O)N[C@H]4C[C@@H]4c4ccccc4)C3)cc2)C1` [Compound 125, (3S,4S)-1-(4-(((S)-1-pentadecanoylpiperidin-3-yl)carbamoyl)benzoyl)-N3,N4-bis((1S,2R)-2-phenylcyclopropyl)pyrrolidine-3,4-dicarboxamide] registered an EC50 above 1000 nM.

As to `CCCCCCCCCCCCCCC(=O)N[C@@H]1CCN(Cc2ccc(C(=O)N3C[C@@H](C(=O)N[C@H]4C[C@@H]4c4ccccc4)[C@H](C(=O)N[C@H]4C[C@@H]4c4ccccc4)C3)cc2)C1=O` [Compound 126, (3S,4S)-1-(4-(((R)-2-oxo-3-pentadecanamidopyrrolidin-1-yl)methyl)benzoyl)-N3,N4-bis((1S,2R)-2-phenylcyclopropyl)pyrrolidine-3,4-dicarboxamide], the EC50 is above 1000 nM.

`CCCCCCCCCCCCCCNC(=O)C[C@H]1CCCN1C(=O)c1ccc(C(=O)N2C[C@@H](C(=O)N[C@H]3C[C@@H]3c3ccccc3)[C@H](C(=O)N[C@H]3C[C@@H]3c3ccccc3)C2)cc1` [Compound 127, (3S,4S)-1-(4-((R)-2-(2-oxo-2-(tetradecylamino)ethyl)pyrrolidine-1-carbonyl)benzoyl)-N3,N4-bis((1S,2R)-2-phenylcyclopropyl) pyrrolidine-3,4-dicarboxamide]: the EC50 is 51 to 350 nM.

Compound `CCCCCCC(=O)N[C@@H](CNC(=O)c1ccc(C(=O)N2C[C@@H](C(=O)N[C@H]3C[C@@H]3c3ccccc3)[C@H](C(=O)N[C@H]3C[C@@H]3c3ccccc3)C2)cc1)C(=O)NCc1ccc(F)cc1` [Compound 128, (3S,4S)-1-(4-(((S)-3-((4-fluorobenzyl)amino)-2-heptanamido-3-oxopropyl)carbamoyl)benzoyl)-N3,N4-bis((1S,2R)-2-phenylcyclopropyl)pyrrolidine-3,4-dicarboxamide] had an EC50 above 1000 nM.

On to `CCCCCCC(=O)N[C@@H](CNC(=O)c1ccc(C(=O)N2C[C@@H](C(=O)N[C@H]3C[C@@H]3c3ccccc3)[C@H](C(=O)N[C@H]3C[C@@H]3c3ccccc3)C2)cc1)C(=O)NCCc1ccc(F)cc1` [Compound 129, (3S,4S)-1-(4-(((S)-3-((4-fluorophenethyl)amino)-2-heptanamido-3-oxopropyl)carbamoyl)benzoyl)-N3,N4-bis((1S,2R)-2-phenylcyclopropyl)pyrrolidine-3,4-dicarboxamide], for which the EC50 lay within 51 to 350 nM.

In general, EC50 refers to the concentration giving half of the maximal effect.

Values taken from US11951094B2, “TLR2 modulator compounds, pharmaceutical compositions and uses thereof” (Axial Therapeutics, Inc., priority 2020, dated 2024).
